Data reported in patent US8664257B2, “Oxygen-substituted 3-heteroaroylamino-propionic acid derivatives and their use as pharmaceuticals” (Sanofi, priority 2010, dated 2014).

molecular target: T1, Recombinant human cathepsin A (Homo sapiens, UniProt P10619); test: Cathepsin A inhibitory activity; format: biochemical; details: pharmacological test "Cathepsin A inhibitory activity"; IC50 given as class A/B/C; read-out: Activity (2): Cathepsin A inhibitory activity, IC50 class
T1 construct: Recombinant human cathepsin A (residues 29-480, with a C-terminal 10-His tag); 10-His (C); purchased R&D Systems 1049-SE
T1 sequence (P10619 29-312 limits assumed): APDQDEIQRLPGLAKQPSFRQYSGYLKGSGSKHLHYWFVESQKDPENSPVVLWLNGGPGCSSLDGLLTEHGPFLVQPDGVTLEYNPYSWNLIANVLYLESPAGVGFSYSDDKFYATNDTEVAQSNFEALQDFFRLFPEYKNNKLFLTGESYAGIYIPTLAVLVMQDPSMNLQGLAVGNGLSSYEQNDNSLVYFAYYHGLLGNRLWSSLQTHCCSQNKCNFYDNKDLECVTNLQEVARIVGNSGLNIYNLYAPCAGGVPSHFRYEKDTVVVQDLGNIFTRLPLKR
T1 sequence (P10619 327-480 limits assumed): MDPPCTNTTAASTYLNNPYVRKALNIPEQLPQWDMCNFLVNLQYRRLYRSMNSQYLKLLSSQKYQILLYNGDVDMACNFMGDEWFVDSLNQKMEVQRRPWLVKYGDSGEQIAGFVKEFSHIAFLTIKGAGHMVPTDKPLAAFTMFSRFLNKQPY
Summary of the method: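 Read-out was microfluidic separation of cleaved vs. uncleaved Bodipy FL-bradykinin (2 μM), giving turnover, % inhibition and IC50. Compound and 833 ng/ml enzyme met for 15 min RT in pH 5.5 MES/DTT before substrate (15 min RT). The 29-480 His-tagged human enzyme was first activated by cathepsin L, then E-64 (10 μM).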

Row | IC50 | SMILES
1 | 1000 to 30000 nM | O=C(O)C[C@H](NC(=O)c1cc(O)n(-c2cccc(Cl)c2)n1)c1ccc(C(F)(F)F)cc1 [Example 256]
2 | 1000 to 30000 nM | COc1ccccc1[C@@H](NC(=O)c1cc(O)n(-c2ccccc2)n1)[C@@H](O)C(=O)O [Example 169]
3 | 100 to 1000 nM | O=C(O)CC(NC(=O)c1cc(O)n(-c2ccc(F)cc2F)n1)c1ccc(-c2ccc(F)cc2)cc1 (stereo not drawn) [Example 202]

same assay, conditions: read-out: Activity (2): Cathepsin A inhibitory activity (IC50 class)

Row | SMILES | IC50
4 | CC(C)(C)[C@](C)(O)COc1cc(C(=O)NC(CC(=O)O)C2CCCCC2)nn1-c1ccccc1F (stereo partly drawn) [Example 773, 3-Cyclohexyl-3-{[1-(2-fluoro-phenyl)-5-((S)-2-hydroxy-2,3,3-trimethyl-butoxy)-1H-pyrazole-3-carbonyl]-amino}-propionic acid] | < 100 nM
5 | CC(C)(C)[C@@](C)(O)COc1cc(C(=O)N[C@@H](CC(=O)O)c2ccccc2Cl)nn1-c1ccccc1F (single isomer, unassigned) [Example 758] | < 100 nM
6 | CC(C)(C)[C@](C)(O)COc1cc(C(=O)N[C@@H](CC(=O)O)c2ccccc2Cl)nn1-c1ccccc1F (single isomer, unassigned) [Example 759] | < 100 nM
7 | COc1cccc([C@H](CC(=O)O)NC(=O)c2cc(OCC3CC3)n(-c3ccccc3F)n2)c1 [Example 689] | 100 to 1000 nM
8 | CCOc1cc(C(=O)N[C@@H](CC(=O)O)c2ccc(C)cc2)nn1-c1ccccc1Cl [Example 736] | < 100 nM
9 | Cc1ccccc1[C@H](CC(=O)O)NC(=O)c1cc(OCC2CCCO2)n(-c2ccccc2F)n1 (stereo partly drawn) [Example 642] | < 100 nM
10 | CC(C)(C)[C@@](C)(O)COc1cc(C(=O)N[C@@H](CC(=O)O)c2cccc(C#N)c2)nn1-c1ccccc1F [Example 778, (S)-3-(3-Cyano-phenyl)-3-{[1-(2-fluoro-phenyl)-5-((R)-2-hydroxy-2,3,3-trimethyl-butoxy)-1H-pyrazole-3-carbonyl]-amino}-propionic acid] | < 100 nM
11 | O=C(O)CC(NC(=O)c1cc(O)n(Cc2ccccc2)n1)c1ccc(-c2ccc(F)cc2)cc1 (stereo not drawn) [Example 538] | 100 to 1000 nM
12 | Cc1ccccc1[C@H](CC(=O)O)NC(=O)c1cc(OCC2CC2(F)F)n(-c2ccccc2F)n1 (stereo partly drawn) [Example 645] | < 100 nM
13 | Cc1ccccc1[C@H](CC(=O)O)NC(=O)c1cc(OC(=O)N2CCCCC2)n(-c2ccccc2F)n1 [Example 619] | < 100 nM

Further lines, results first:

Row | IC50 | SMILES
14 | 1000 to 30000 nM | Cc1ccccc1[C@H](CC(=O)O)NC(=O)c1cc(O)n(-c2ccccc2S(C)(=O)=O)n1 [Example 607]
15 | < 100 nM | CCOc1cc(C(=O)N[C@@H](CC(=O)O)c2ccccc2Cl)nn1-c1ccccc1F [Example 717]
16 | 100 to 1000 nM | Cc1ccccc1[C@H](CC(=O)O)NC(=O)c1cc(O)n(-c2c(F)cccc2F)n1 [Example 588]

same assay, conditions: read-out: Activity (2): Cathepsin A inhibitory activity, IC50 class

Row | SMILES | IC50
17 | Cc1ccc(C)c(-n2nc(C(=O)NC(CC(=O)O)c3ccc(-c4ccccc4)cc3)cc2O)c1 (stereo not drawn) [Example 55] | 100 to 1000 nM
18 | Cc1cccc([C@H](CC(=O)O)NC(=O)c2cc(OC[C@H](O)C(C)(C)C)n(-c3ccccc3F)n2)c1 [Example 804, (S)-3-{[1-(2-Fluoro-phenyl)-5-((R)-2-hydroxy-3,3-dimethyl-butoxy)-1H-pyrazole-3-carbonyl]-amino}-3-m-tolyl-propionic acid] | < 100 nM
19 | CC(C)[C@](C)(O)COc1cc(C(=O)N[C@H](CC(=O)O)Cc2ccccc2)nn1-c1ccccc1F [Example 837, (S)-3-{[1-(2-Fluoro-phenyl)-5-((S)-2-hydroxy-2,3-dimethyl-butoxy)-1H-pyrazole-3-carbonyl]-amino}-4-phenyl-butyric acid] | 1000 to 30000 nM
20 | CC(C)(CC(=O)O)NC(=O)c1cc(O)n(-c2ccccc2)n1 [Example 4] | 1000 to 30000 nM
21 | Cc1ccc(C)c(-n2nc(C(=O)NC(CC(=O)O)C(C)C)cc2O)c1 (stereo not drawn) [Example 32] | 1000 to 30000 nM
22 | CC(C)(C)[C@](C)(O)COc1cc(C(=O)N[C@@H](CC(=O)O)c2ccc(F)cc2)nn1-c1ccccc1F [Example 880, (S)-3-(4-Fluoro-phenyl)-3-{[1-(2-fluoro-phenyl)-5-((S)-2-hydroxy-2,3,3-trimethyl-butoxy)-1H-pyrazole-3-carbonyl]-amino}-propionic acid] | < 100 nM
23 | CC(C)(C)C(=O)COc1cc(C(=O)N[C@@H](CC(=O)O)c2cccc(Cl)c2)nn1-c1ccccc1F [Example 796, (S)-3-(3-Chloro-phenyl)-3-{[5-(3,3-dimethyl-2-oxo-butoxy)-1-(2-fluoro-phenyl)-1H-pyrazole-3-carbonyl]-amino}-propionic acid] | < 100 nM
24 | CC(C)(C)[C@](C)(O)COc1cc(C(=O)N[C@@H](CC(=O)O)c2ccccc2C(F)(F)F)nn1-c1ccccc1F [Example 799, (S)-3-{[1-(2-Fluoro-phenyl)-5-((S)-2-hydroxy-2,3,3-trimethyl-butoxy)-1H-pyrazole-3-carbonyl]-amino}-3-(2-trifluoromethyl-phenyl)-propionic acid] | < 100 nM
25 | COc1ccccc1[C@@H](NC(=O)c1cc(O)n(-c2ccc(Cl)cc2)n1)[C@@H](O)C(=O)O [Example 282] | 1000 to 30000 nM
26 | CC(C)C(C)(O)COc1cc(C(=O)N[C@@H](CC(=O)O)c2c(F)cccc2F)nn1-c1ccccc1F (stereo partly drawn) [Example 808, (S)-3-(2,6-Difluoro-phenyl)-3-{[1-(2-fluoro-phenyl)-5-(2-hydroxy-2,3-dimethyl-butoxy)-1H-pyrazole-3-carbonyl]-amino}-propionic acid] | < 100 nM
27 | CCCC(CC(=O)O)NC(=O)c1cc(O)n(-c2cc(C)ccc2C)n1 (stereo not drawn) [Example 26] | 1000 to 30000 nM

Next, values leading:

Row | IC50 | SMILES
28 | 100 to 1000 nM | COc1ccc(C(CC(=O)O)NC(=O)c2cc(O)n(-c3ccccc3Cl)n2)c(F)c1 (stereo not drawn) [Example 132]
29 | 100 to 1000 nM | Cc1cccc(C(CC(=O)O)NC(=O)c2cc(O)n(-c3ccccc3)n2)c1C (stereo not drawn) [Example 377]
30 | 1000 to 30000 nM | O=C(O)CC(NC(=O)c1cc(O)n(-c2ccccc2)n1)c1ccc(F)c(F)c1 (stereo not drawn) [Example 60]
31 | 100 to 1000 nM | Cc1ccc(C)c(C(CC(=O)O)NC(=O)c2cc(O)n(-c3cccc(F)c3)n2)c1 (stereo not drawn) [Example 321]
32 | 100 to 1000 nM | COc1ccc(C(CC(=O)O)NC(=O)c2cc(O)n(-c3ccccc3)n2)cc1 (stereo not drawn) [Example 3, 3-[(5-Hydroxy-1-phenyl-1H-pyrazole-3-carbonyl)-amino]-3-(4-methoxy-phenyl)-propionic acid]
33 | 100 to 1000 nM | O=C(O)C[C@H](NC(=O)c1cc(O)n(-c2ccccc2)n1)c1ccccc1C(F)(F)F [Example 97]
34 | 1000 to 30000 nM | O=C(O)CC(NC(=O)c1cc(O)n(-c2ccccc2)n1)c1cc(F)cc(F)c1 (stereo not drawn) [Example 70]
35 | 100 to 1000 nM | N#Cc1ccc([C@H](CC(=O)O)NC(=O)c2cc(O)n(-c3cccc(F)c3)n2)cc1 [Example 305]
36 | 100 to 1000 nM | COc1ccccc1[C@H](CC(=O)O)NC(=O)c1cc(O)n(-c2ccccc2Cl)n1 [Example 111]
37 | 100 to 1000 nM | COc1ccc(C(CC(=O)O)NC(=O)c2cc(O)n(-c3cccc(F)c3)n2)c(Cl)c1 (stereo not drawn) [Example 310]
38 | 100 to 1000 nM | O=C(O)C[C@H](NC(=O)c1cc(O)n(-c2ccccc2F)n1)c1ccccc1C(F)(F)F [Example 119]
39 | 100 to 1000 nM | O=C(O)C[C@H](NC(=O)c1cc(O)n(-c2ccccc2F)n1)c1cccc(F)c1 [Example 400]
40 | 100 to 1000 nM | O=C(O)CC(NC(=O)c1cc(O)n(-c2cccc(F)c2)n1)c1ccc(Cl)cc1F (stereo not drawn) [Example 320]

same assay, conditions: recombinant human cathepsin A 833 ng/ml, Bodipy FL-labeled bradykinin 2 μM, pH 5.5; read-out: CATH-A IC50

Row | SMILES | IC50
41 | CC(C)(C)[C@@](C)(O)COc1cc(C(=O)N[C@@H](CC(=O)O)c2ccccc2Cl)nn1-c1ccccc1F (single isomer, unassigned) [Example 758] | 17.4 nM
42 | O=C(O)CC(NC(=O)c1cc(O)n(-c2ccc(F)cc2F)n1)c1cccc2c1OC(F)(F)O2 (stereo not drawn) [Example 450, 3-(2,2-Difluoro-benzo[1,3]dioxol-4-yl)-3-{[1-(2,4-difluoro-phenyl)-5-hydroxy-1H-pyrazole-3-carbonyl]-amino}-propionic acid] | 409 nM

Second part, the compound after the results:

Row | IC50 | SMILES
43 | 2250 nM | O=C(O)CC(NC(=O)c1cc(O)n(-c2cccc(Cl)c2)n1)c1ccccc1SC(F)(F)F (stereo not drawn) [Example 467, 3-{[1-(3-Chloro-phenyl)-5-hydroxy-1H-pyrazole-3-carbonyl]-amino}-3-(2-trifluoromethylsulfanyl-phenyl)-propionic acid]
44 | 1730 nM | O=C(O)CC(NC(=O)c1cc(O)n(-c2ccc(Cl)cc2)n1)c1cc(F)ccc1C(F)(F)F (stereo not drawn) [Example 473, 3-{[1-(4-Chloro-phenyl)-5-hydroxy-1H-pyrazole-3-carbonyl]-amino}-3-(5-fluoro-2-trifluoromethyl-phenyl)-propionic acid]

same assay, conditions: recombinant human cathepsin A; read-out: Activity (2): Cathepsin A inhibitory activity, IC50 class

Row | SMILES | IC50
45 | O=C(O)CC(NC(=O)c1cc(O)n(-c2ccc(F)cc2F)n1)c1cccc2c1OC(F)(F)O2 (stereo not drawn) [Example 450, 3-(2,2-Difluoro-benzo[1,3]dioxol-4-yl)-3-{[1-(2,4-difluoro-phenyl)-5-hydroxy-1H-pyrazole-3-carbonyl]-amino}-propionic acid] | 100 to 1000 nM
46 | COc1cc(C(=O)N[C@@H](CC(=O)Nc2cc(C)[nH]n2)c2ccccc2C)nn1-c1ccccc1F [Example 923, 1-(2-Fluoro-phenyl)-5-methoxy-1H-pyrazole-3-carboxylic acid [(S)-2-(5-methyl-1H-pyrazol-3-ylcarbamoyl)-1-o-tolyl-ethyl]-amide] | 1000 to 30000 nM

Second part, the compound after the results:

Row | IC50 | SMILES
47 | 1000 to 30000 nM | COc1cccc([C@H](CC(=O)O)NC(=O)c2cc(O)n(-c3cccc(Cl)c3)n2)c1 [Example 413]
48 | 1000 to 30000 nM | O=C(O)C[C@H](NC(=O)c1cc(O)n(-c2cccc(Cl)c2)n1)c1cccc(Cl)c1Cl [Example 412]
49 | 100 to 1000 nM | O=C(O)C[C@H](NC(=O)c1cc(O)n(-c2cccc(Cl)c2)n1)c1ccccc1F [Example 422]
50 | 1000 to 30000 nM | O=C(O)CC(NC(=O)c1cc(O)n(-c2cccc(Cl)c2)n1)c1ccccc1SC(F)(F)F (stereo not drawn) [Example 467, 3-{[1-(3-Chloro-phenyl)-5-hydroxy-1H-pyrazole-3-carbonyl]-amino}-3-(2-trifluoromethylsulfanyl-phenyl)-propionic acid]
51 | 1000 to 30000 nM | O=C(O)CC(NC(=O)c1cc(O)n(-c2ccc(Cl)cc2)n1)c1cc(F)ccc1C(F)(F)F (stereo not drawn) [Example 473, 3-{[1-(4-Chloro-phenyl)-5-hydroxy-1H-pyrazole-3-carbonyl]-amino}-3-(5-fluoro-2-trifluoromethyl-phenyl)-propionic acid]
